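Where inhibition never reached the appropriate level, the endpoint shown equals the highest concentration tested. Otherwise, values were interpolated linearly from a five-concentration, 48-hour dose response in 96-well plates. At the GI50, growth is halved.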 Activity calls are given as the source filed them. Cut-off read from the data, not from the text of the source: active = GI50 up to about 1.1 µM and inactive = higher. Where a SMILES comes first, the peptide text is derived from it. The star is where a group is joined. Boc = CC(C)(C)OC(=O)*
What was measured:
Assay in all cases: DTP human tumour cell line panel, 48 h
[1] = system: OVCAR-8
[2] = system: 786-0
[3] = system: NCI-H460
[4] = system: DU-145
[5] = system: CCRF-CEM
[6] = system: A498
[7] = system: MOLT-4
[8] = system: SK-MEL-2
[9] = system: M14
[10] = system: HCT-15
[11] = system: SF-268
[12] = system: NCI-H23
[13] = system: ACHN
[14] = system: HOP-62
[15] = system: SK-OV-3
[16] = system: PC-3
[17] = system: SNB-75
[18] = system: RXF 393
[19] = system: SN12C
[20] = system: MDA-MB-231

Structure (SMILES) | GI50 [1] | GI50 [2] | GI50 [3] | GI50 [4] | GI50 [5] | GI50 [6] | GI50 [7] | GI50 [8] | GI50 [9] | GI50 [10] [µM] | GI50 [11] | GI50 [12] | GI50 [13] | GI50 [14] | GI50 [15] | GI50 [16] | GI50 [17] | GI50 [18] | GI50 [19] | GI50 [20]
CCOC(=O)NC(=S)c1ccc(O)c2ccccc12 | 34.2 µM (inactive) | > 100 µM (inactive) | 38.8 µM (inactive) | > 100 µM (inactive) | 8.63 µM (inactive) | > 100 µM (inactive) | 36.1 µM (inactive) | > 100 µM (inactive) | 70.1 µM (inactive) | 36.6 | 12.4 µM (inactive) | 55.5 µM (inactive) | 80.5 µM (inactive) | 77.1 µM (inactive) | 45.1 µM (inactive) | > 100 µM (inactive) | – | – | – | –
CSc1ccc(C2C(Cl)C(=O)N2NC(=O)c2c(Cl)c(Cl)c(Cl)c(Cl)c2-c2nc3ccccc3[nH]2)cc1 (configuration not stated) | 18.8 µM (inactive) | 18.4 µM (inactive) | – | 15.8 µM (inactive) | 2.48 µM (inactive) | 31.8 µM (inactive) | 4.7 µM (inactive) | 31.6 µM (inactive) | 20.5 µM (inactive) | 19.1 | 19.1 µM (inactive) | 15.6 µM (inactive) | 24.2 µM (inactive) | 79.3 µM (inactive) | 26.6 µM (inactive) | 17.5 µM (inactive) | 15.2 µM (inactive) | 1.97 µM (inactive) | 15.8 µM (inactive) | –
CC(C)(O)/C=C\P(C)(=O)c1ccccc1 (configuration not stated) | > 100 µM (inactive) | > 100 µM (inactive) | > 100 µM (inactive) | > 100 µM (inactive) | – | – | – | > 100 µM (inactive) | > 100 µM (inactive) | > 100 | > 100 µM (inactive) | > 100 µM (inactive) | > 100 µM (inactive) | > 100 µM (inactive) | > 100 µM (inactive) | > 100 µM (inactive) | > 100 µM (inactive) | > 100 µM (inactive) | > 100 µM (inactive) | –
CCc1n[nH]c(=O)n1NC(=O)CCCC(=O)O | > 100 µM (inactive) | > 100 µM (inactive) | > 100 µM (inactive) | – | > 100 µM (inactive) | > 100 µM (inactive) | > 100 µM (inactive) | > 100 µM (inactive) | > 100 µM (inactive) | > 100 | > 100 µM (inactive) | > 100 µM (inactive) | > 100 µM (inactive) | > 100 µM (inactive) | > 100 µM (inactive) | > 100 µM (inactive) | – | > 100 µM (inactive) | > 100 µM (inactive) | > 100 µM (inactive)
CC(Oc1ccc(Oc2cnc3ccc(Cl)cc3n2)cc1)C(=O)O (configuration not stated) | > 80.5 µM (inactive) | > 81.1 µM (inactive) | 19.1 µM (inactive) | – | – | > 62.1 µM (inactive) | 11.7 µM (inactive) | > 88.5 µM (inactive) | > 91.6 µM (inactive) | > 74.1 | > 100 µM (inactive) | > 76.4 µM (inactive) | 60 µM (inactive) | > 74.5 µM (inactive) | > 100 µM (inactive) | > 100 µM (inactive) | 84.5 µM (inactive) | > 81.8 µM (inactive) | > 100 µM (inactive) | > 89.5 µM (inactive)
COC(=O)C(Cc1c[nH]c2ccccc12)NC(=O)C(Cc1c[nH]c2ccccc12)NC(=O)C(Cc1c[nH]c2ccccc12)NC(=O)OC(C)(C)C (stereo not drawn) (Boc-Trp-Trp-Trp-OMe; configuration not given here) | 20.7 µM (inactive) | 17.8 µM (inactive) | 20.2 µM (inactive) | – | – | 53.5 µM (inactive) | 17.3 µM (inactive) | 17.3 µM (inactive) | 37.3 µM (inactive) | 19.5 | – | 16.2 µM (inactive) | 18.1 µM (inactive) | 17.9 µM (inactive) | – | 15.9 µM (inactive) | 19.8 µM (inactive) | 8.93 µM (inactive) | 18.9 µM (inactive) | 30.1 µM (inactive)

Reference: ChEMBL document CHEMBL1201862, “PubChem BioAssay data set” (2004)
